Assays:
Type in all cases: biochemical
[1] = system: CARM1/PRMT4; assay: CARM1/PRMT4 IC50 assay; conditions: read-out: IC50 for PRMT4; 150 nM CARM1/PRMT4, 15 µM 14C-methyl-SAM, 10 µM histone H3, 30 °C
[2] = system: PRMT3; assay: PRMT3 IC50 assay; conditions: read-out: IC50 for PRMT3; 500 nM PRMT3, 15 µM 14C-methyl-SAM, 250 µM RGG, 37 °C
[3] = target: PRMT1 (Homo sapiens, UniProt Q99873); assay: PRMT1 IC50 assay; conditions: read-out: IC50 for PRMT1; 200 nM PRMT1, 15 µM 14C-methyl-SAM, 25 µM AcH4-21, 37 °C
[4] = target: PRMT6 (Homo sapiens, UniProt Q96LA8); assay: PRMT6 IC50 assay; conditions: read-out: IC50 for PRMT6; 500 nM PRMT6, 15 µM 14C-methyl-SAM, 30 µM histone H3, 37 °C
Sequence of PRMT6 (Q96LA8 whole entry, species assumed): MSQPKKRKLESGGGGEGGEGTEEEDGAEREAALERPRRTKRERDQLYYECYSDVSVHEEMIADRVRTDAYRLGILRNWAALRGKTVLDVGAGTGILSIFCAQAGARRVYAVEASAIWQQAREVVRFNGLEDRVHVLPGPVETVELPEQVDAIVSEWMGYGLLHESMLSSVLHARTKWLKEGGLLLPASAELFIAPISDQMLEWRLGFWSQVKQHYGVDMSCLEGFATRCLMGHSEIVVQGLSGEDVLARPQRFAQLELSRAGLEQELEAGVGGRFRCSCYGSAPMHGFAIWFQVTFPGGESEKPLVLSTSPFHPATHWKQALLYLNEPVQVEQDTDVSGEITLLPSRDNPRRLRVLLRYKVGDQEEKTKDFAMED

Sequence of PRMT1 (Q99873 1-353 isoform Q99873-3): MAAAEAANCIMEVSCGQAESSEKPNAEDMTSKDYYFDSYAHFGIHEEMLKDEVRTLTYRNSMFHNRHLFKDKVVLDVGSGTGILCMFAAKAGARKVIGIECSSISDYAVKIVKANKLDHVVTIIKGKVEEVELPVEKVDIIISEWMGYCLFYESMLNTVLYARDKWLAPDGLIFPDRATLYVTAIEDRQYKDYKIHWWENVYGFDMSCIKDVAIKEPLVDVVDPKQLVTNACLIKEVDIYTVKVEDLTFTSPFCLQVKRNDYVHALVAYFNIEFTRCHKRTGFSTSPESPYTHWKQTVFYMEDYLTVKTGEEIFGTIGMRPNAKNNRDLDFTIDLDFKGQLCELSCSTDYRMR

Row | IC50 [1] [µM] | IC50 [2] [µM] | IC50 [3] [µM] | IC50 [4] [µM] | SMILES
1 | > 500 | > 500 | 225 ± 10 | > 500 | NC(=O)[C@H](CCCN=C(N)CCl)NC(=O)c1ccccc1 [Cl-amidine]
2 | > 500 | > 500 | > 500 | > 500 | NC(=O)[C@H](CCCN=C(N)CF)NC(=O)c1ccccc1 [F-amidine]
